Test results from patent US9751826B2, “4-vinyl-2-cyclopenten-1-one derivatives, the production thereof, and the use of same as an antibiotic agent” (Centre National de la Recherche Scientifique (CNRS), priority 2014, dated 2017).

Columns and labels:
Format in all cases: cell-based
[1] = system: Enterobacter cloacae (ATCC 13047); assay: Antibiotic test, inhibition zone technique
Method: (§1) Once purified, the molecule of the compound of formula (Ia) is redissolved in suitable solvents and at a suitable concentration, preferentially in dimethyl sulfoxide (DMSO) at a concentration of 10 mg/ml. This initial solution is then diluted according to the various biological tests to be performed. Two series of tests were carried out. The molecule of the compound of formula (Ia) was used in antibiotic tests, employing the inhibition zone technique, on various Gram-positive and Gram-negative bacteria, in the amount of 100 μg. In parallel, similar tests are carried out with control antibiotics in varying amounts depending on the antibiotic, either 10 μg or 30 μg.

[2] = system: Escherichia coli (ATCC 25922); assay: Antibiotic test, inhibition zone technique
Method: as §1

[3] = system: Klebsiella pneumoniae (ATCC 1001); assay: Antibiotic test, inhibition zone technique
Method: as §1

[4] = system: Micrococcus luteus (ATCC 10240); assay: Antibiotic test, inhibition zone technique
Method: as §1

[5] = system: KB cancer cell line (carcinoma); assay: Cytotoxicity test on KB cancer cell line
Method: (§2) Once purified, the molecule of the compound of formula (Ia) is redissolved in suitable solvents and at a suitable concentration, preferentially in dimethyl sulfoxide (DMSO) at a concentration of 10 mg/ml. This initial solution is then diluted according to the various biological tests to be performed. Two series of tests were carried out. Tests for cytotoxicity on a KB cancer cell line (carcinoma) and an equivalent line of non-cancerous MRC5 cells. The following table presents the percentage of inhibition of growth by the molecule of the compound of formula (Ia) at concentrations of 1 and 10 micromolar.

[6] = system: MRC5 cells; assay: Cytotoxicity test on non-cancerous MRC5 cells
Method: as §2

[7] = system: Acinetobacter baumannii (ATCC 19606); assay: Antibiotic test, inhibition zone technique
Method: as §1

[8] = system: Bacillus subtilis (ATCC 6633); assay: Antibiotic test, inhibition zone technique
Method: as §1

[9] = system: Staphylococcus aureus (ATCC 25923); assay: Antibiotic test, inhibition zone technique
Method: as §1

[10] = system: Streptococcus pneumoniae (ATCC 49619); assay: Antibiotic test, inhibition zone technique
Method: as §1

[11] = system: various target pathogenic microorganisms; assay: Antibiotic activity at 1 to 100 μg (FIG. 7); conditions: amounts of 1 to 100 μg
Method: The molecule of the compound of formula (Ia) was used in antibiotic tests, employing the inhibition zone technique, on various Gram-positive and Gram-negative bacteria, in the amount of 100 μg. In parallel, similar tests are carried out with control antibiotics in varying amounts depending on the antibiotic, either 10 μg or 30 μg.
FIG. 7 illustrates the antibiotic activity of the compound of formula (Ia) on various target pathogenic microorganisms in amounts of 1 to 100 μg in comparison with chloramphenicol and gentamycin at 30 μg and 10 μg, respectively. […] Indeed, inhibition by 1 μg of the compound of formula (Ia) is equivalent to that obtained with 30 μg of chloramphenicol. The same observations and conclusions can be made for all the strains that are sensitive to the compound of formula (Ia) as shown in FIG. 7.

[12] = system: Pseudomonas aeruginosa (ATCC 27853); assay: Antibiotic test, inhibition zone technique; conditions: 10 μg deposited
Method: as §1

Molecule: O=C(N[C@H](CO)[C@H](O)c1ccc([N+](=O)[O-])cc1)C(Cl)Cl [Chloramphenicol, reference compound]
- Inhibition zone by the reference antibiotics ([1]; 30 μg deposited): 1.5 cm
- Inhibition zone by the reference antibiotics ([2]; 30 μg deposited): 1.0 cm
- Inhibition zone by the reference antibiotics ([3]; 30 μg deposited): 2.5 cm
- Inhibition zone by the reference antibiotics ([4]; 30 μg deposited): 3.2 cm

Molecule: COC(=O)/C=C/[C@@]1(O)C=CC(=O)C1 [compound of formula (Ia)]
- cytotoxicity against tumor cells ([5]; 1 and 10 micromolar): no cytotoxicity is observed
- inhibition at 10 µM ([5]; Homo sapiens, KB cells, 10^−5 M, read-out: percentage of inhibition of growth): 0%
- inhibition at 1 µM ([5]; Homo sapiens, KB cells, 10^−6 M, read-out: percentage of inhibition of growth): 0%
- cytotoxicity against healthy cells ([6]; 1 and 10 micromolar): no cytotoxicity is observed
- inhibition at 10 µM ([6]; Homo sapiens, 10^−5 M, read-out: percentage of inhibition of growth): 2 ± 12%
- inhibition at 1 µM ([6]; Homo sapiens, 10^−6 M, read-out: percentage of inhibition of growth): 1 ± 3%
- Inhibition zone for 100 μg of the compound of formula (Ia) ([7]; 100 μg deposited): 3.2 cm
- Inhibition zone for 100 μg of the compound of formula (Ia) ([8]; 100 μg deposited): 2.7 cm
- Inhibition zone for 100 μg of the compound of formula (Ia) ([1]; 100 μg deposited): 1.2 cm
- Inhibition zone for 100 μg of the compound of formula (Ia) ([2]; 100 μg deposited): 2.7 cm
- amount giving inhibition equivalent to that of 30 μg of chloramphenicol ([2]; FIG. 7): 1 µg
- antibiotic activity compared with chloramphenicol ([2]; FIG. 7, 1 to 100 μg vs chloramphenicol 30 μg): much higher activity than that of chloramphenicol
- Inhibition zone for 100 μg of the compound of formula (Ia) ([3]; 100 μg deposited): 2.9 cm
- Inhibition zone for 100 μg of the compound of formula (Ia) ([4]; 100 μg deposited): 3.2 cm
- Inhibition zone for 100 μg of the compound of formula (Ia) ([9]; 100 μg deposited): 3.0 cm
- Inhibition zone for 100 μg of the compound of formula (Ia) ([10]; 100 μg deposited): 2.0 cm
- dose dependence of antibiotic activity [11]: dose-dependent

Molecule: Gentamycin [reference compound]
- Inhibition zone by the reference antibiotics ([7]; 10 μg deposited): 0.9 cm
- Inhibition zone by the reference antibiotics ([8]; 10 μg deposited): 1.2 cm
- Inhibition zone by the reference antibiotics [12]: 1.3 cm
- Inhibition zone by the reference antibiotics ([9]; 10 μg deposited): 1.2 cm

Molecule: Penicillin [reference compound]
- Inhibition zone by the reference antibiotics ([10]; 30 μg deposited): 3.5 cm
